Test system: isolated stratum corneum
Test: Moisturizing potential on isolated stratum corneum by measurement with a corneometer
Conditions: 5% by weight in 80%/20% water/n-propanol, 10 μL/cm2 on SC, 4 hours, 75% relative humidity, 25° C.
Protocol: A test was performed to evaluate the moisturizing potential of the extracts of the invention formulated in a vehicle (80%/20% water/n-propanol) in an amount of 5% by weight relative to the total weight of the composition. The technique makes it possible to measure the dielectric capacitance of the stratum corneum (SC), which depends on the mean dielectric permittivity value of the tissue. The dielectric permittivity varies greatly with the amount of water contained in the SC. The SC samples are conditioned at 75% relative humidity and at 25° C. before/during the measurements and the treatment. The capacitance measurement is performed using a CorneometerTM (Courage & Khazaka, Germany). […] Using at least two different batches of SC, four to five SC samples are measured per treatment. The variation in the corneometer signal (HCM) after treatment is calculated first for each SC sample: […]0). The mean of the DHCMi(vehicle) variations is then calculated for the control samples (treated with the vehicle): this mean value is subtracted from all the DHCMi(active agent) and DHCMi(positive control) variations to correct for the systematic bias. […]

For OCC(O)CO [Glycerol, glycerol], the “% norm (corneometer signal variation, vehicle-corrected, normalized to glycerol)” value was 100%.
